Reference: ChEMBL document CHEMBL4385615, “Design and Synthesis of Type-IV Inhibitors of BRAF Kinase That Block Dimerization and Overcome Paradoxical MEK/ERK Activation” (J Med Chem, 2019)
Each block holds one compound with its values, some of them ahead of it. Peptide text beside a SMILES is read from it.

Columns and labels:
MCF-10A [1] = assay: Antiproliferative activity against EGF-dependent human MCF10A cells assessed as inhibition of colony growth at 1.5 uM supplemented with fresh medium containing compound every 2 days for 11 days; assay type: functional
[2] = biological target: T1, Serine/threonine-protein kinase B-raf (Homo sapiens, UniProt P15056); assay: Binding affinity to BRAF (unknown origin) by intrinsic tryptophan fluorescence assay
T1 sequence (P15056 whole entry): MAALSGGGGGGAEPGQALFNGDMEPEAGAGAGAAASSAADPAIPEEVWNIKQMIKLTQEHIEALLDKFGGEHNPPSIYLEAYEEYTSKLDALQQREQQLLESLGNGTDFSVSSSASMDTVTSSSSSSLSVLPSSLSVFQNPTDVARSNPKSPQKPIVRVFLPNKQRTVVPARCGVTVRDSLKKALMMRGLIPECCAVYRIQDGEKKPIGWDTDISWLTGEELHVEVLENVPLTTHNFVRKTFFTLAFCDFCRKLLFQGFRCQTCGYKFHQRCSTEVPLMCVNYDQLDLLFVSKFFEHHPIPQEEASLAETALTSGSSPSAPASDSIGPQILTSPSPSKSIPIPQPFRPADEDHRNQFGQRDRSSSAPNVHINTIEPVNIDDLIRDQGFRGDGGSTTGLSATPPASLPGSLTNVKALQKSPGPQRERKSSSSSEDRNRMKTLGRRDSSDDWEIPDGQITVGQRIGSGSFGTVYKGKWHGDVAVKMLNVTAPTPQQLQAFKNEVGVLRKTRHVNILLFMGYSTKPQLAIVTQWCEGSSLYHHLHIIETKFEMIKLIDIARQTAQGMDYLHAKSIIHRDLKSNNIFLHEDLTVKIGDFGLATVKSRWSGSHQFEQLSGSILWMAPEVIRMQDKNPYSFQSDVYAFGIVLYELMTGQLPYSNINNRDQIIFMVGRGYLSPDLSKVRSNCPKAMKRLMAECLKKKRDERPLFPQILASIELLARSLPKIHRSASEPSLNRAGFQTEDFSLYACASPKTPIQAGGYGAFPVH

[3] = biological target: T1, Serine/threonine-protein kinase B-raf; assay: Inhibition of BRAF in NRAS Q61K mutant-driven human SBcl2 cells assessed as suppression of vemurafenib-induced phosphorylation of MEK expression administered via electroporation for 30 mins followed by vemurafenib addition and measured after 1 hr by Western blot analysis
MCF-10A [4] = assay: Antiproliferative activity against EGF-dependent human MCF10A cells assessed as inhibition of colony growth at 2 uM supplemented with fresh medium containing compound every 2 days for 11 days; assay type: functional
[5] = biological target: T1, Serine/threonine-protein kinase B-raf; assay: Inhibition of BRAF in NRAS Q61K mutant-driven human SBcl2 cells assessed as suppression of vemurafenib-induced phosphorylation of ERK expression at 300 uM administered via electroporation for 30 mins followed by vemurafenib addition and measured after 1 hr by Western blot analysis
[6] = biological target: T1, Serine/threonine-protein kinase B-raf; assay: Inhibition of BRAF in NRAS Q61K mutant-driven human SBcl2 cells assessed as suppression of vemurafenib-induced phosphorylation of ERK expression administered via electroporation for 30 mins followed by vemurafenib addition and measured after 1 hr by Western blot analysis
[7] = biological target: T1, Serine/threonine-protein kinase B-raf; assay: Inhibition of BRAF in NRAS Q61K mutant-driven human SBcl2 cells assessed as suppression of vemurafenib-induced phosphorylation of MEK expression at 300 uM administered via electroporation for 30 mins followed by vemurafenib addition and measured after 1 hr by Western blot analysis

Structure (SMILES): CC[C@H](C)[C@H](NC(=O)[C@H](CC(N)=O)NC(=O)[C@@H](NC(=O)[C@H](Cc1cnc[nH]1)NC(=O)[C@H](CCCNC(=N)N)NC(=O)[C@@H](NC(=O)[C@H](CCCCN)NC(=O)[C@H](CCCNC(=N)N)NC(=O)[C@H](CC(C)C)NC(=O)[C@@H](N)C(C)C)[C@@H](C)O)C(C)C)C(=O)N[C@@H](CC(C)C)C(=O)N[C@@H](CC(C)C)C(=O)N[C@@H](Cc1ccccc1)C(=O)N[C@@H](CCSC)C(=O)NCC(=O)O
inhibition (INH) (MCF-10A [1]): 100%

Structure (SMILES): CC[C@H](C)[C@H](NC(=O)[C@H](CC(C)C)NC(=O)[C@@H](NC(=O)[C@H](CC(N)=O)NC(=O)[C@@H](NC(=O)[C@H](Cc1cnc[nH]1)NC(=O)[C@H](CCCNC(=N)N)NC(=O)[C@@H](NC(=O)[C@H](CCCCN)NC(=O)[C@H](CCCNC(=N)N)NC(=O)[C@H](CC(C)C)NC(=O)[C@@H](NC(=O)CN)C(C)C)[C@@H](C)O)C(C)C)[C@@H](C)CC)C(=O)N[C@@H](Cc1ccccc1)C(=O)N[C@@H](CCSC)C(=O)NCC(=O)N[C@@H](Cc1ccc(O)cc1)C(=O)N[C@@H](CO)C(=O)N[C@H](C(=O)O)[C@@H](C)O
Kd ([2]; read-out: Kd): 4100 nM

Structure (SMILES): CC[C@H](C)[C@H](NC(=O)[C@H](CC(N)=O)NC(=O)[C@@H](NC(=O)[C@H](Cc1cnc[nH]1)NC(=O)[C@H](CCCNC(=N)N)NC(=O)[C@H](CC(=O)O)NC(=O)[C@H](CCCCN)NC(=O)[C@H](CCCNC(=N)N)NC(=O)[C@H](CC(C)C)NC(=O)[C@@H](NC(=O)CN)C(C)C)C(C)C)C(=O)N[C@@H](CC(C)C)C(=O)N[C@@H](CC(C)C)C(=O)N[C@@H](Cc1ccccc1)C(=O)N[C@@H](CCSC)C(=O)NCC(=O)N[C@@H](Cc1ccc(O)cc1)C(=O)N[C@@H](CO)C(=O)N[C@H](C(=O)O)[C@@H](C)O
Kd ([2]; read-out: Kd): 2200 nM

Structure (SMILES): CC[C@H](C)[C@H](NC(=O)[C@H](CC(N)=O)NC(=O)[C@@H](NC(=O)[C@H](Cc1cnc[nH]1)NC(=O)[C@H](CCCNC(=N)N)NC(=O)[C@@H](NC(=O)[C@H](CCCCN)NC(=O)[C@H](CC(C)C)NC(=O)[C@H](CC(C)C)NC(=O)[C@@H](NC(=O)CN)C(C)C)[C@@H](C)O)C(C)C)C(=O)N[C@@H](CC(C)C)C(=O)N[C@@H](CC(C)C)C(=O)N[C@@H](Cc1ccccc1)C(=O)N[C@@H](CCSC)C(=O)NCC(=O)N[C@@H](Cc1ccc(O)cc1)C(=O)N[C@@H](CO)C(=O)N[C@H](C(=O)O)[C@@H](C)O
Kd ([2]; read-out: Kd): 540 nM

Kd ([2]; read-out: Kd): 1880 nM
Structure (SMILES): CC[C@H](C)[C@H](NC(=O)[C@H](CC(N)=O)NC(=O)[C@@H](NC(=O)[C@H](Cc1cnc[nH]1)NC(=O)[C@H](CCCNC(=N)N)NC(=O)[C@@H](NC(=O)[C@H](CCCCN)NC(=O)[C@H](CCCNC(=N)N)NC(=O)[C@H](CC(C)C)NC(=O)[C@@H](NC(=O)CN)C(C)C)[C@@H](C)O)C(C)C)C(=O)N[C@@H](CC(C)C)C(=O)N[C@@H](CC(C)C)C(=O)N[C@@H](Cc1ccccc1)C(=O)N[C@@H](CCSC)C(=O)NCC(=O)O (H-GVLRKTRHVNILLFMG-OH)

Kd [2]: Not Active
Structure (SMILES): CC[C@H](C)[C@H](NC(=O)[C@H](CC(N)=O)NC(=O)[C@@H](NC(=O)[C@H](Cc1cnc[nH]1)NC(=O)[C@H](Cc1cnc[nH]1)NC(=O)[C@@H](NC(=O)[C@H](CCCCN)NC(=O)[C@H](CCCNC(=N)N)NC(=O)[C@H](CC(C)C)NC(=O)[C@@H](NC(=O)CN)C(C)C)[C@@H](C)O)C(C)C)C(=O)N[C@@H](CC(C)C)C(=O)NCC(=O)N[C@@H](Cc1ccccc1)C(=O)N[C@@H](Cc1c[nH]c2ccccc12)C(=O)NCC(=O)N[C@@H](Cc1ccc(O)cc1)C(=O)N[C@@H](CO)C(=O)N[C@H](C(=O)O)[C@@H](C)O (H-GVLRKTHHVNILGFWGYST-OH)

Structure (SMILES): CC[C@H](C)[C@H](NC(=O)[C@H](CC(N)=O)NC(=O)[C@@H](NC(=O)[C@H](Cc1cnc[nH]1)NC(=O)[C@H](CCCNC(=N)N)NC(=O)[C@@H](NC(=O)[C@H](CCCCN)NC(=O)[C@H](CCC(=O)O)NC(=O)[C@H](CC(C)C)NC(=O)[C@@H](NC(=O)CN)C(C)C)[C@@H](C)O)C(C)C)C(=O)N[C@@H](CC(C)C)C(=O)N[C@@H](CC(C)C)C(=O)N[C@@H](Cc1ccccc1)C(=O)N[C@@H](CCSC)C(=O)NCC(=O)N[C@@H](Cc1ccc(O)cc1)C(=O)N[C@@H](CO)C(=O)N[C@H](C(=O)O)[C@@H](C)O
Kd ([2]; read-out: Kd): 1090 nM

Kd [2]: Not Active
Structure (SMILES): CC[C@H](C)[C@H](NC(=O)[C@H](CC(N)=O)NC(=O)[C@@H](NC(=O)[C@H](Cc1cnc[nH]1)NC(=O)[C@H](CCCNC(=N)N)NC(=O)[C@@H](NC(=O)[C@H](CCCCN)NC(=O)[C@H](CCCNC(=N)N)NC(=O)[C@H](CC(C)C)NC(=O)[C@@H](NC(=O)CN)C(C)C)[C@@H](C)O)C(C)C)C(=O)N[C@@H](CC(C)C)C(=O)N[C@@H](CC(C)C)C(=O)N[C@@H](CC(=O)O)C(=O)N[C@@H](CCSC)C(=O)NCC(=O)N[C@@H](Cc1ccc(O)cc1)C(=O)N[C@@H](CO)C(=O)N[C@H](C(=O)O)[C@@H](C)O

Kd [2]: Not Active
Structure (SMILES): CC[C@H](C)[C@H](NC(=O)[C@H](C)NC(=O)[C@@H](NC(=O)[C@H](Cc1cnc[nH]1)NC(=O)[C@H](CCCNC(=N)N)NC(=O)[C@@H](NC(=O)[C@H](CCCCN)NC(=O)[C@H](CCCNC(=N)N)NC(=O)[C@H](CC(C)C)NC(=O)[C@@H](N)C(C)C)[C@@H](C)O)C(C)C)C(=O)N[C@@H](CC(C)C)C(=O)N[C@@H](CC(C)C)C(=O)N[C@@H](Cc1ccccc1)C(=O)N[C@@H](CCSC)C(=O)NCC(=O)O (H-VLRKTRHVAILLFMG-OH)

inhibition [3]: Dose-dependent effect | inhibition [5]: 100% | inhibition [6]: Dose-dependent effect | inhibition [7]: 100%
Structure (SMILES): CC[C@H](C)[C@H](NC(=O)[C@H](CC(N)=O)NC(=O)[C@@H](NC(=O)[C@H](Cc1cnc[nH]1)NC(=O)[C@H](CCCNC(=N)N)NC(=O)[C@@H](NC(=O)[C@H](CCCCN)NC(=O)[C@H](CCCNC(=N)N)NC(=O)[C@H](CC(C)C)NC(=O)[C@@H](NC(=O)CN)C(C)C)[C@@H](C)O)C(C)C)C(=O)N[C@@H](CC(C)C)C(=O)N[C@@H](CC(C)C)C(=O)N[C@@H](Cc1ccccc1)C(=O)N[C@@H](CCSC)C(=O)NCC(=O)N[C@@H](Cc1ccc(O)cc1)C(=O)N[C@@H](CO)C(=O)N[C@H](C(=O)O)[C@@H](C)O
inhibition (INH) (MCF-10A [4]): 100%

Structure (SMILES): CC[C@H](C)[C@H](NC(=O)[C@H](CC(N)=O)NC(=O)[C@H](C)NC(=O)[C@H](Cc1cnc[nH]1)NC(=O)[C@H](CCCNC(=N)N)NC(=O)[C@@H](NC(=O)[C@H](CCCCN)NC(=O)[C@H](CCCNC(=N)N)NC(=O)[C@H](CC(C)C)NC(=O)[C@@H](NC(=O)CN)C(C)C)[C@@H](C)O)C(=O)N[C@@H](CC(C)C)C(=O)N[C@@H](CC(C)C)C(=O)N[C@@H](Cc1ccccc1)C(=O)N[C@@H](CCSC)C(=O)NCC(=O)N[C@@H](Cc1ccc(O)cc1)C(=O)N[C@@H](CO)C(=O)N[C@H](C(=O)O)[C@@H](C)O
Kd ([2]; read-out: Kd): 4750 nM

Kd [2]: Not Active
Structure (SMILES): CC[C@H](C)[C@H](NC(=O)[C@H](CC(N)=O)NC(=O)[C@@H](NC(=O)[C@H](Cc1ccccc1)NC(=O)[C@H](CCCNC(=N)N)NC(=O)[C@@H](NC(=O)[C@H](CCCCN)NC(=O)[C@H](CCCNC(=N)N)NC(=O)[C@H](CC(C)C)NC(=O)[C@@H](NC(=O)CN)C(C)C)[C@@H](C)O)C(C)C)C(=O)N[C@@H](CC(C)C)C(=O)N[C@@H](CC(C)C)C(=O)N[C@@H](Cc1ccccc1)C(=O)N[C@@H](CCSC)C(=O)NCC(=O)N[C@@H](Cc1ccc(O)cc1)C(=O)N[C@@H](CO)C(=O)N[C@H](C(=O)O)[C@@H](C)O

Structure (SMILES): CC[C@H](C)[C@H](NC(=O)[C@H](CC(N)=O)NC(=O)[C@@H](NC(=O)[C@H](Cc1cnc[nH]1)NC(=O)[C@H](CCCNC(=N)N)NC(=O)[C@@H](NC(=O)[C@H](CCCCN)NC(=O)[C@H](CCCNC(=N)N)NC(=O)[C@H](CC(C)C)NC(=O)[C@@H](NC(=O)CN)C(C)C)[C@@H](C)O)C(C)C)C(=O)N[C@@H](C)C(=O)N[C@@H](CC(C)C)C(=O)N[C@@H](Cc1ccccc1)C(=O)N[C@@H](CCSC)C(=O)NCC(=O)N[C@@H](Cc1ccc(O)cc1)C(=O)N[C@@H](CO)C(=O)N[C@H](C(=O)O)[C@@H](C)O
Kd ([2]; read-out: Kd): 9800 nM

Structure (SMILES): CSCC[C@@H]1NC(=O)[C@H](Cc2ccccc2)NC(=O)[C@H](CC(C)C)NC(=O)[C@H](CC(C)C)NC(=O)[C@H](CCC(=O)O)NC(=O)[C@H](CC(N)=O)NC(=O)[C@H](C(C)C)NC(=O)[C@H](Cc2cnc[nH]2)NC(=O)[C@H](CCCNC(=N)N)NC(=O)[C@H](CCCCN)NC(=O)[C@H](CCCCN)NC(=O)[C@H](CCCNC(=N)N)NC(=O)[C@H](CC(C)C)NC(=O)CNC1=O
Kd ([2]; read-out: Kd): 1890 nM
